Results from US20190091163A1, “NANO-SIZED DRUG DELIVERY STRUCTURE” (INSTITUT NATIONAL DE LA SANTE ET DE LA RECHERCHE MEDICALE …, priority 2016, published 2019).

Experiments:
[1] = system: SKBR3 cells; experiment: Uptake mechanism of GO nanodrug structures with endocytosis inhibitors (flow cytometry); assay type: cell-based, human; conditions: 1 hour pre-incubation with inhibitor, 15 mins with nanoparticles, FIG. 10
Protocol: The uptake mechanism of the GO nanodrug structures was then investigated using various endocytosis inhibitors in comparison with the graphene oxide drug metamaterial described here-above, free of any drug active (GO control).
Different endocytosis inhibitors were tested: • Cytochalasin D, an inhibitor of macropinocytosis-dependent endocytosis in a dosage of 10, 5 and 1 (μM); • Genistein, an inhibitor of caveolae-mediated endocytosis in a dosage of 100, 30 and 25 (μM); and • Chlorpromazine (CMZ), an inhibitor of clathrin-mediated endocytosisin a dosage of 5, 1 and 0.5 (μM).
Cellular internalization of each nanostructure was followed as described here-after.
SKBR3 cells were seeded to a density of 1.0×10^5 cells per well in a 12-well plates followed by an overnight incubation. The cells were rinsed with PBS and pre-incubated with different concentrations of the appropriate endocytic inhibitor in serum-free RPMI 1640 media, for 1 hour. The media was then replaced with the same concentration of inhibitors in serum-containing RPMI 1640 media, the nanoparticles were added and cells were incubated for 15 mins. Following incubation, the medium was removed and cells were rinsed several times with cold PBS. The cells were collected with trypsin EDTA and analyzed using flow cytometry analysis.

[2] = system: SKBR3 cells; experiment: Uptake efficiency of GO-HER2 antibody nanodrug structures after preincubation with Lapatinib; assay type: cell-based, human; conditions: SKBR3 cells preincubated with Lapatinib; FIG. 11
Description: Abscissa: amount of Lapatinib (μM). Ordinate: uptake efficiency (%).
Lapatinib is a known HER2 tyrosine kinase inhibitor, which induces stabilization and accumulation of HER2.

[3] = system: MDA-MB-231 (human breast basal epithelial cancer cells); conditions: MDA-MB-231 cells, different concentrations of the peptide; Kawamoto et al. 2013; cited from earlier work

| Compound | inhibition of internalization (cellular uptake) of GO nanodrug structures [1] | other results |
| --- | --- | --- |
| CN(C)CCCN1c2ccccc2Sc2ccc(Cl)cc21 [Chlorpromazine] | did not show any notable inhibition | – |
| C=C1[C@@H](C)[C@H]2[C@H](Cc3ccccc3)NC(=O)[C@]23[C@H](OC(C)=O)/C=C/[C@@](C)(O)C(=O)[C@@H](C)C/C=C/[C@H]3[C@@H]1O [Cytochalasin D] | significantly inhibited the internalization | – |
| O=c1c(-c2ccc(O)cc2)coc2cc(O)cc(O)c12 [Genistein] | did not show any notable inhibition | – |
| CS(=O)(=O)CCNCc1ccc(-c2ccc3ncnc(Nc4ccc(OCc5cccc(F)c5)c(Cl)c4)c3c2)o1 [Lapatinib] | – | effect on uptake efficiency of GO-HER2 antibody nanodrug structures [2]: dose-dependent reduction in intake |
| KLLLKLLKKLLKLLKKK (anti-cancer cationic lytic peptide) [cationic lytic anti-cancer peptide, disintegrates the cell membrane] | – | effect on cell proliferation [3]: dose-dependent reduction in cell proliferation |
